ChEMBL document CHEMBL4354822, “Ligand-Based Design of Nondimethylphenyl-Diarylpyrimidines with Improved Metabolic Stability, Safety, and Oral Pharmacokinetic Profiles” (J Med Chem, 2019)

Legend:
[1] = test system: Human immunodeficiency virus 1; assay: Antiviral activity against HIV1 3B infected in human MT4 cells incubated assessed as reduction in virus-induced cytopathic effect for 5 days by MTT assay; assay type: functional, organism-based; details: Human immunodeficiency virus 1, 3B, MT4, 120 h
MT4 = assay: Cytotoxicity against human MT4 cells assessed as reduction in cell viability incubated for 5 days by MTT assay; assay type: functional; details: MT4, 120 h
[2] = test system: Human immunodeficiency virus 1; assay: Antiviral activity against HIV1 harboring reverse transcriptase L100I mutant infected in human MT4 cells assessed as reduction in virus-induced cytopathic effect incubated for 5 days by MTT assay; assay type: functional, organism-based; details: Human immunodeficiency virus 1, MT4, 120 h
[3] = test system: Human immunodeficiency virus 1; assay: Antiviral activity against HIV1 harboring reverse transcriptase Y181C mutant infected in human MT4 cells assessed as reduction in virus-induced cytopathic effect incubated for 5 days by MTT assay; assay type: functional, organism-based; details: Human immunodeficiency virus 1, MT4, 120 h
[4] = test system: Human immunodeficiency virus 1; assay: Antiviral activity against HIV1 harboring reverse transcriptase E138K mutant infected in human MT4 cells assessed as reduction in virus-induced cytopathic effect incubated for 5 days by MTT assay; assay type: functional, organism-based; details: Human immunodeficiency virus 1, MT4, 120 h
[5] = Aqueous solubility of compound at 2 mg measured for 24 hrs by HPLC analysis; assay type: physicochemical; details: aqueous medium
[6] = Selectivity index, ratio of CC50 for human MT4 cells to EC50 for antiviral activity against HIV1 3B infected in human MT4 cells incubated for 5 days by MTT assay; assay type: toxicity, cell-based; details: MT4 cells (uninfected for CC50; HIV-1 3B infected for EC50)
[7] = test system: Human immunodeficiency virus 1; assay: Antiviral activity against HIV1 harboring reverse transcriptase K103N mutant infected in human MT4 cells assessed as reduction in virus-induced cytopathic effect incubated for 5 days by MTT assay; assay type: functional, organism-based; details: Human immunodeficiency virus 1, MT4, 120 h
[8] = test system: Human immunodeficiency virus 1; assay: Antiviral activity against HIV1 harboring reverse transcriptase Y188L mutant infected in human MT4 cells assessed as reduction in virus-induced cytopathic effect incubated for 5 days by MTT assay; assay type: functional, organism-based; details: Human immunodeficiency virus 1, MT4, 120 h
[9] = target: Human immunodeficiency virus type 1 reverse transcriptase (Human immunodeficiency virus 1, UniProt Q72547); assay: Inhibition of recombinant wild type HIV1 reverse transcriptase p66/p51 incubated for 40 mins by picogreen dye-based spectrofluorometric analysis
[10] = Metabolic stability in human liver microsomes at 1 uM measured up to 45 mins in presence of NADPH by LC/MS/MS analysis; assay type: ADME, Microsome
[11] = Metabolic stability in rat liver microsomes at 1 uM measured up to 45 mins in presence of NADPH by LC/MS/MS analysis; assay type: ADME, Microsome
[12] = Intrinsic clearance in human liver microsomes assessed per mg protein at 1 uM measured up to 45 mins in presence of NADPH by LC/MS/MS analysis; assay type: ADME, Microsome; details: read-out: CLH
[13] = Intrinsic clearance in rat liver microsomes assessed per mg protein at 1 uM measured up to 45 mins in presence of NADPH by LC/MS/MS analysis; assay type: ADME, Microsome
[14] = AUC in Sprague-Dawley rat at 5 mg/kg, po via gavage administration measured after 24 hrs by LCMS analysis; assay type: ADME, organism-based; parameters: time < 24 hr, dose 5 mg/kg, route oral; details: in vivo
[15] = AUCinfinity in Sprague-Dawley rat at 5 mg/kg, po via gavage administration measured after 24 hrs by LCMS analysis; assay type: ADME, organism-based; parameters: dose 5 mg/kg, route oral, time infinity; details: in vivo
[16] = MRTinfinity in Sprague-Dawley rat at 5 mg/kg, po via gavage administration measured after 24 hrs by LCMS analysis; assay type: ADME, organism-based; details: in vivo
[17] = Half life in Sprague-Dawley rat at 5 mg/kg, po via gavage administration measured after 24 hrs by LCMS analysis; assay type: ADME, organism-based; details: in vivo
[18] = Tmax in Sprague-Dawley rat at 5 mg/kg, po via gavage administration measured after 24 hrs by LCMS analysis; assay type: ADME, organism-based; details: in vivo
[19] = Cmax in Sprague-Dawley rat at 5 mg/kg, po via gavage administration measured after 24 hrs by LCMS analysis; assay type: ADME, organism-based; parameters: dose 5 mg/kg, route oral; details: in vivo
[20] = Oral bioavailability in Sprague-Dawley rat at 5 mg/kg measured after 24 hrs by LCMS analysis; assay type: ADME, organism-based; details: in vivo
[21] = AUC in Sprague-Dawley rat at 10 mg/kg, po via gavage administration measured after 24 hrs by LCMS analysis; assay type: ADME, organism-based; parameters: dose 10 mg/kg, time < 24 hr, route oral; details: in vivo
[22] = AUCinfinity in Sprague-Dawley rat at 10 mg/kg, po via gavage administration measured after 24 hrs by LCMS analysis; assay type: ADME, organism-based; parameters: dose 10 mg/kg, time infinity, route oral; details: in vivo
[23] = MRTinfinity in Sprague-Dawley rat at 10 mg/kg, po via gavage administration measured after 24 hrs by LCMS analysis; assay type: ADME, organism-based; details: in vivo
[24] = Half life in Sprague-Dawley rat at 10 mg/kg, po via gavage administration measured after 24 hrs by LCMS analysis; assay type: ADME, organism-based; details: in vivo
[25] = Tmax in Sprague-Dawley rat at 10 mg/kg, po via gavage administration measured after 24 hrs by LCMS analysis; assay type: ADME, organism-based; details: in vivo
[26] = Cmax in Sprague-Dawley rat at 10 mg/kg, po via gavage administration measured after 24 hrs by LCMS analysis; assay type: ADME, organism-based; parameters: dose 10 mg/kg, route oral; details: in vivo
[27] = Oral bioavailability in Sprague-Dawley rat at 10 mg/kg measured after 24 hrs by LCMS analysis; assay type: ADME, organism-based; details: in vivo
[28] = AUC in Sprague-Dawley rat at 1 mg/kg, iv measured after 24 hrs by LCMS analysis; assay type: ADME, organism-based; parameters: time < 24 hr, dose 1 mg/kg, route intravenous; details: in vivo
[29] = AUCinfinity in Sprague-Dawley rat at 1 mg/kg, iv measured after 24 hrs by LCMS analysis; assay type: ADME, organism-based; parameters: dose 1 mg/kg, route intravenous, time infinity; details: in vivo
[30] = MRTinfinity in Sprague-Dawley rat at 1 mg/kg, iv measured after 24 hrs by LCMS analysis; assay type: ADME, organism-based; details: in vivo
[31] = Half life in Sprague-Dawley rat at 1 mg/kg, iv measured after 24 hrs by LCMS analysis; assay type: ADME, organism-based; details: in vivo
[32] = Acute toxicity in mouse assessed as mortality at 2 mg/kg, ig measured up to 14 days; assay type: organism-based; details: in vivo, po, 336 h
[33] = Acute toxicity in mouse assessed as change in body weight at 2 mg/kg, ig measured up to 14 days; assay type: organism-based; details: in vivo, po, 336 h
[34] = Acute toxicity in mouse assessed as change in behavior at 2 mg/kg, ig measured up to 14 days; assay type: organism-based; details: in vivo, po, 336 h
[35] = Acute toxicity in mouse assessed as change in brain at 2 mg/kg, ig measured up to 14 days by H and E staining based assay; assay type: organism-based; details: in vivo, po, 336 h
[36] = Acute toxicity in mouse assessed as change in heart at 2 mg/kg, ig measured up to 14 days by H and E staining based assay; assay type: organism-based; details: in vivo, po, 336 h
[37] = Acute toxicity in mouse assessed as change in liver at 2 mg/kg, ig measured up to 14 days by H and E staining based assay; assay type: organism-based; details: in vivo, po, 336 h
[38] = Acute toxicity in mouse assessed as change in lung at 2 mg/kg, ig measured up to 14 days by H and E staining based assay; assay type: organism-based; details: in vivo, po, 336 h
[39] = Acute toxicity in mouse assessed as change in kidney at 2 mg/kg, ig measured up to 14 days by H and E staining based assay; assay type: organism-based; details: in vivo, po, 336 h
[40] = test system: Human immunodeficiency virus 1; assay: Ratio of EC50 for rilpivirine to EC50 for test compound for antiviral activity against HIV1 harboring reverse transcriptase L100I mutant infected in human MT4 cells assessed as reduction in virus-induced cytopathic effect incubated for 5 days by MTT assay; assay type: functional
[41] = test system: Human immunodeficiency virus 1; assay: Ratio of EC50 for efavirenz to EC50 for test compound for antiviral activity against HIV1 harboring reverse transcriptase L100I mutant infected in human MT4 cells assessed as reduction in virus-induced cytopathic effect incubated for 5 days by MTT assay; assay type: functional
[42] = test system: Human immunodeficiency virus 1; assay: Ratio of EC50 for etravirine to EC50 for test compound for antiviral activity against HIV1 harboring reverse transcriptase L100I mutant infected in human MT4 cells assessed as reduction in virus-induced cytopathic effect incubated for 5 days by MTT assay; assay type: functional
[43] = target: Human immunodeficiency virus type 1 reverse transcriptase (Human immunodeficiency virus 1) (UniProt Q72547); assay: Ratio of IC50 for nevirapine to IC50 for test compound for recombinant wild type HIV1 reverse transcriptase p66/p51
[44] = Oral bioavailability in Sprague-Dawley rat at 1 mg/kg measured after 24 hrs by LCMS analysis; assay type: ADME, organism-based; details: in vivo
[45] = test system: Human immunodeficiency virus 1; assay: Ratio of EC50 for test compound to EC50 for 4-[4-[[2-(4-cyanoanilino)pyrimidin-4-yl]amino]-3,5-dimethyl-phenyl]benzonitrile against HIV1 3B infected in human MT4 cells incubated for 5 days by MTT assay; assay type: functional

## Cc1cc(C#N)cc(C)c1Oc1nc(Nc2ccc(C#N)cc2)nc(N)c1Br [ETRAVIRINE]
[1]
  EC50: 6.3 nM
MT4
  CC50: > 4610 nM
[2]
  EC50: 7.1 nM
[3]
  EC50: 12 nM
[4]
  EC50: 6.5 nM
[5]
  solubility at 24 h: < 1 µg/mL

## N#Cc1ccc(Nc2nccc(Nc3c(F)cc(-c4ccc(C#N)cc4)cc3F)n2)cc1
[1]
  EC50: 1.3 nM
MT4
  CC50: > 295000 nM
[6]
  selectivity ratio at 120 h: > 238000
[2]
  EC50: 10.8 nM
[7]
  EC50: 2.6 nM
[3]
  EC50: 6.1 nM
[8]
  EC50: 130 nM
[4]
  EC50: 1.9 nM
[9]
  IC50: 4.7 nM
[5]
  solubility at 24 h: < 1 µg/mL

## Cl.N#Cc1ccc(Nc2nccc(Nc3c(F)cc(-c4ccc(C#N)cc4)cc3F)n2)cc1
[5]
  solubility at 24 h: 5.6 µg/mL
[10]
  half-life at 1 µM: 0.527 h
  k el at 0.75 h, 1 µM: 0.000365 s⁻¹
[11]; liver microsomes
  k el at 0.75 h, 1 µM: 0.000262 s⁻¹
[11]; microsomes, 0.75 h, 1 µM
  t1/2: 0.738 h
[12]
  microsomal CLint at 1 µM: 21.9 µL/min/mg
[13]; microsomes, 0.75 h, 1 µM
  CLH: 44.3 µL/min/mg
[14]
  AUC at 24 h: 7890 ng·h/mL
[15]
  AUC(0-inf): 8000 ng·h/mL
[16]
  MRT inf: 8.37 h
[17]
  half-life: 3.23 h
[18]
  Tmax: 5.33 h
[19]
  Cmax: 887 ng/mL
[20]
  bioavailability: 44%
[21]
  AUC at 24 h: 12100 ng·h/mL
[22]
  AUC(0-inf): 12200 ng·h/mL
[23]
  MRT inf: 8.27 h
[24]
  half-life: 3.18 h
[25]
  Tmax: 6.67 h
[26]
  Cmax: 1230 ng/mL
[27]
  bioavailability: 33.6%
[28]
  AUC at 24 h: 3560 ng·h/mL
[29]
  AUC(0-inf): 3640 ng·h/mL
[30]
  MRT inf: 4.69 h
[31]
  half-life: 4.18 h
[32]
  Activity: Non-Toxic
[33]
  Activity: Non-Toxic
[34]
  Activity: Non-Toxic
[35]
  Activity: Non-Toxic
[36]
  Activity: Non-Toxic
[37]
  Activity: Non-Toxic
[38]
  Activity: Non-Toxic
[39]
  Activity: Non-Toxic

## Cc1cc(-c2ccc(C#N)cc2)cc(C)c1Nc1ccnc(Nc2ccc(C#N)cc2)n1
[5]
  solubility at 24 h: < 1 µg/mL
[10]
  k el at 0.75 h, 1 µM: 0.00079 s⁻¹
[11]; liver microsomes
  half-life at 1 µM: 0.257 h
  k el at 0.75 h, 1 µM: 0.00075 s⁻¹
[12]
  microsomal CLint at 1 µM: 47.4 µL/min/mg
[13]; liver microsomes, read-out: CLH
  microsomal CLint at 1 µM: 45 µL/min/mg

## N#Cc1ccc(Nc2nccc(Nc3c(F)cc(-c4ccc(C#N)cc4)cc3F)n2)cc1.O=C(O)C(F)(F)F
[5]
  solubility at 24 h: 0.35 µg/mL

## Cc1cc(-c2ccc(C#N)cc2)cc(Cl)c1Oc1ccnc(Nc2ccc(C#N)cc2)n1
[1]
  EC50: 3.4 nM
MT4
  CC50: > 286000 nM
[6]
  selectivity ratio at 120 h: > 86200
[40]
  Ratio EC50: 2 - 568
[41]
  Ratio EC50: 2 - 568
[42]
  Ratio EC50: 2 - 568
[2]
  EC50: < 3.7 nM
[7]
  EC50: < 4.3 nM
[3]
  EC50: 10.5 nM
[8]
  EC50: 200 nM
[4]
  EC50: 6.6 nM
[9]
  IC50: 10.8 nM
[43]
  Ratio IC50: 21 to 109

## N#Cc1ccc(Nc2nccc(Nc3c(F)cc(-c4ccc(C#N)cc4)cc3F)n2)cc1.O=S(=O)(O)O
[5]
  solubility at 24 h: 0.36 µg/mL

## Cc1cc(/C=C/C#N)cc(C)c1Nc1ccnc(Nc2ccc(C#N)cc2)n1.Cl [RILPIVIRINE HYDROCHLORIDE]
[44]
  bioavailability: 32%

## N#Cc1ccc(Nc2nc(Oc3ccc(-c4ccc(C#N)cc4)c(F)c3F)c3sccc3n2)cc1
[45]
  Ratio EC50: 14

## CC(=O)O.N#Cc1ccc(Nc2nccc(Nc3c(F)cc(-c4ccc(C#N)cc4)cc3F)n2)cc1
[5]
  solubility at 24 h: 0.34 µg/mL
